Assay results reported in patent publication US20100204231A1, “AMINO-THIAZOLYL-PYRIMIDINE DERIVATIVES AND THEIR USE FOR THE TREATMENT OF CANCER” (ASTRAZENECA AB, priority 2007, published 2010).

Biological target: T1, C-terminal His6-tagged, recombinant, human JAK2, amino acids 808-end (Homo sapiens, UniProt O60674)
T1 construct: human JAK2, amino acids 808-end; His6 (C); purchased Upstate Biotechnology; host or cells: baculovirus in Sf21 cells
Assay: JAK2 kinase activity assay (Alphascreen)
Format: biochemical
Settings: 150 pM JAK2 enzyme, 30 μM ATP, 80 nM Tyk2 peptide substrate, 60 minutes, room temperature; read-out: JAK inhibitory activity IC50
Experimental: JAK2 kinase activity was determined by measuring the kinase's ability to phosphorylate synthetic tyrosine residues within a generic polypeptide substrate using an Amplified Luminescent Proximity Assay (Alphascreen) technology (PerkinElmer, 549 Albany Street, Boston, Mass.).
To measure JAK2 kinase activity, a commercially available purified enzyme may be used. The enzyme may be C-terminal His6-tagged, recombinant, human JAK2, amino acids 808-end, (Genbank Accession number NM 004972) expressed by baculovirus in Sf21 cells (Upstate Biotechnology MA). After incubation of the kinase with a biotinylated substrate and adenosine triphosphate (ATP) for 60 minutes at room temperature, the kinase reaction may be stopped by the addition of 30 mM ethylenediaminetetraacetic acid (EDTA). The reaction may be performed in 384 well microtitre plates and the reaction products may be detected with the addition of streptavidin coated Donor Beads and phosphotyrosine-specific antibodies coated Acceptor Beads using the EnVision Multilabel Plate Reader after an overnight incubation at room temperature.

T1 sequence (O60674 808-1132 limits assumed): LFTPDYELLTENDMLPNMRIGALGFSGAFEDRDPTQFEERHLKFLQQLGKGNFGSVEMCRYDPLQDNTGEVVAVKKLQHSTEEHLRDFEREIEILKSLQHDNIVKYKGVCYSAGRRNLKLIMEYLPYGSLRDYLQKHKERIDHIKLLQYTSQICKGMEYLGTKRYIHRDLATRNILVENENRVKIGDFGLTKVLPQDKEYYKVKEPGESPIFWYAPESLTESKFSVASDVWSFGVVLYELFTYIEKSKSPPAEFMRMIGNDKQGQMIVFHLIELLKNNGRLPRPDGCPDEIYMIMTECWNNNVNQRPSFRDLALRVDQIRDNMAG

SMILES | IC50 [nM]
Cc1cnc(Nc2nc(N[C@@H](C)c3ncc(F)cn3)nc(N3CCOCC3)c2F)s1 [Example 4, 5-Fluoro-N^2-[(1S)-1-(5-fluoropyrimidin-2-yl)ethyl]-N^4-(5-methyl-1,3-thiazol-2-yl)-6-morpholin-4-ylpyrimidine-2,4-diamine] | 3
Cc1cnc(Nc2nc(N[C@@H](C)c3ccc(F)cn3)ncc2Cl)s1 [Example 3, 5-Chloro-N^2-[(1S)-1-(5-fluoropyridin-2-yl)ethyl]-N^4-(5-methyl-1,3-thiazol-2-yl)pyrimidine-2,4-diamine] | 902
Cc1cnc(Nc2cc(N3CCN(C)CC3)nc(N[C@@H](C)c3ccc(F)cn3)n2)s1 [Example 5, N^2-[(S)-1-(5-Fluoro-pyridin-2-yl)-ethyl]-6-(4-methyl-piperazin-1-yl)-N^4-(5-methyl-thiazol-2-yl)-pyrimidine-2,4-diamine] | 3
COC(=O)c1cnc(Nc2nc(N[C@@H](C)c3ccc(F)cc3)ncc2Cl)s1 [Example 2, Methyl 2-[(5-chloro-2-{[(1S)-1-(4-fluorophenyl)ethyl]amino}pyrimidin-4-yl)amino]-1,3-thiazole-5-carboxylate] | 170
COc1cc(Nc2ncc(C)s2)nc(N[C@@H](C)c2ncc(F)cn2)n1 [Example 10, (S)—N^2-(1-(5-Fluoropyrimidin-2-yl)ethyl)-6-methoxy-N^4-(5-methylthiazol-2-yl)pyrimidine-2,4-diamine] | 3
Cc1cnc(Nc2nc(N[C@@H](C)c3ccc(F)cc3)ncc2Cl)s1 [Example 1, 5-Chloro-N^2-[(1S)-1-(4-fluorophenyl]ethyl)-N^4-(5-methyl-1,3-thiazol-2-yl)pyrimidine-2,4-diamine] | 6
C[C@H](Nc1nc(Nc2ncc(C#N)s2)cc(N2CCOCC2)n1)c1ccc(F)cn1 [Example 8, 2-[(2-{[(1S)-1-(5-Fluoropyridin-2-yl)ethyl]amino}-6-morpholin-4-ylpyrimidin-4-yl)amino]-1,3-thiazole-5-carbonitrile] | 3
